Publication PMC8015229, “Focus on Human Monoamine Transporter Selectivity. New Human DAT and NET Models, Experimental Validation, and SERT Affinity Exploration” (ACS Chemical Neuroscience, 2020)
Like-named read-outs stand apart in the source and are kept apart here.

How the values were obtained:
NET [1] = biological target: T1, NET (Oryctolagus cuniculus, UniProt G1TDF9); assay: [3H]nisoxetine binding assay to rabbit cortical membranes
T1 construct: tissue Charles River Laboratories, Inc. (animals); host or cells: cerebral cortex of New Zealand White rabbit
Method: This washing procedure was repeated twice. The resulting pellet was immediately used in the binding assay or frozen at −80 °C until the time of the assay.
Incubation was carried out at 4 °C for 4 h.

DAT [2] = biological target: T2, DAT (Oryctolagus cuniculus, UniProt Z9V7K4Q734); assay: [3H]WIN 35,428 binding assay to rabbit striatal membranes; conditions: mean ± SE of three or more experiments, tested as hydrochloride salts
Method: (§1) Membranes used in DAT and SERT binding assays were prepared from frozen rabbit striatum and frontal cortex as previously described.[29]
DAT binding assays were performed using 2 nM [^3H]WIN 35,428 (specificity activity, 84.5 Ci mmol^–1; PerkinElmer Life Science) as previously described by Nencetti et al.[29]

SERT [3] = biological target: T3, SERT (Homo sapiens, UniProt P31645); assay: [3H]5-HT uptake to human platelets
SERT [4] = biological target: T3, SERT; assay: [3H]paroxetine binding assay to human platelet membranes
DAT [5] = biological target: T2, DAT; conditions: rabbit striatal membranes; tested as hydrochloride salts; read-out: [3H]-WIN 35,428, Ki; cited from earlier work
SERT [6] = biological target: T4, SERT (Oryctolagus cuniculus, UniProt A0A5F9CLU6); assay: [3H]paroxetine binding assay to rabbit cortical membranes
Method: as §1

SERT [7] = biological target: T4, SERT; conditions: rabbit cortical membranes; tested as hydrochloride salts; cited from earlier work
NET [8] = biological target: T1, NET; conditions: read-out: [3H]nisoxetine, Ki; rabbit cortical membranes; cited from earlier work
DAT [9] = conditions: binding affinity for human transporters; cited from earlier work
NET [10] = conditions: cited from earlier work
NET [11] = conditions: binding affinity for rat transporter; cited from earlier work
SERT [12] = biological target: T3, SERT; conditions: cited from earlier work
SERT [13] = conditions: binding affinity for rat transporter; cited from earlier work
[14] = rabbit cortical membranes, tested as hydrochloride salts
[15] = binding affinity for human transporters

T4 sequence (A0A5F9CLU6 1-628): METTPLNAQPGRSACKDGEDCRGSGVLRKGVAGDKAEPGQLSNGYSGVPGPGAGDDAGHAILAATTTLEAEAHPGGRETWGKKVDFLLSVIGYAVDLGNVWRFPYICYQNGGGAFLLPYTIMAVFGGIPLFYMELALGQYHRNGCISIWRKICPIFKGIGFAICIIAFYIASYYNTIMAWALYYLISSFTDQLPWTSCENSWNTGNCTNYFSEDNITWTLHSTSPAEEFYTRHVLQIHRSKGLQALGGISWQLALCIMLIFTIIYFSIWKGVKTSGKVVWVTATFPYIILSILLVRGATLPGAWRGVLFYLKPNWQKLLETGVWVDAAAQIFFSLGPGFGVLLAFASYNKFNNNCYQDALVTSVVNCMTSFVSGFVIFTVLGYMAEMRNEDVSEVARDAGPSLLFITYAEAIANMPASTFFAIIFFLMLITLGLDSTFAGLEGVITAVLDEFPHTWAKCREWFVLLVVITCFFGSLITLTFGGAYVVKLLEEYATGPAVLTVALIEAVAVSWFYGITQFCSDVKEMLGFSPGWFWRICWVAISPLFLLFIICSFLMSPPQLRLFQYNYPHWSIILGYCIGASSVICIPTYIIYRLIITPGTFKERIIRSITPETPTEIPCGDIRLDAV
T2 sequence (Z9V7K4Q734 1-627): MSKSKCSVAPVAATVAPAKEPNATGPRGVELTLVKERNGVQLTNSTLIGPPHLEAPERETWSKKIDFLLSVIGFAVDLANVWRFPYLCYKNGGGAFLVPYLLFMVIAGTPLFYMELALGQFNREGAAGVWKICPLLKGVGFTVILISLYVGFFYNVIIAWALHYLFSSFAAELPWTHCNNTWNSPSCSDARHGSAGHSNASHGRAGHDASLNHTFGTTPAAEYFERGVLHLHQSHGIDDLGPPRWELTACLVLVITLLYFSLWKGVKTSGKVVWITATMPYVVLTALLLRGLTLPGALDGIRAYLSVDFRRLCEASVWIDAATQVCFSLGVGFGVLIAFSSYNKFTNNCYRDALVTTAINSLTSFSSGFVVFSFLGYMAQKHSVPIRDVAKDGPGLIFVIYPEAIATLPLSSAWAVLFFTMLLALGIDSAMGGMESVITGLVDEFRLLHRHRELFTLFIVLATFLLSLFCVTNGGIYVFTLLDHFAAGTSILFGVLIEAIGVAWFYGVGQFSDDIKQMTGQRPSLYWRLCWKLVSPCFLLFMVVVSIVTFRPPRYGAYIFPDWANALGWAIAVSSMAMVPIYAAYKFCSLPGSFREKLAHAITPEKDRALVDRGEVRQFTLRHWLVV
T3 sequence (P31645 whole entry): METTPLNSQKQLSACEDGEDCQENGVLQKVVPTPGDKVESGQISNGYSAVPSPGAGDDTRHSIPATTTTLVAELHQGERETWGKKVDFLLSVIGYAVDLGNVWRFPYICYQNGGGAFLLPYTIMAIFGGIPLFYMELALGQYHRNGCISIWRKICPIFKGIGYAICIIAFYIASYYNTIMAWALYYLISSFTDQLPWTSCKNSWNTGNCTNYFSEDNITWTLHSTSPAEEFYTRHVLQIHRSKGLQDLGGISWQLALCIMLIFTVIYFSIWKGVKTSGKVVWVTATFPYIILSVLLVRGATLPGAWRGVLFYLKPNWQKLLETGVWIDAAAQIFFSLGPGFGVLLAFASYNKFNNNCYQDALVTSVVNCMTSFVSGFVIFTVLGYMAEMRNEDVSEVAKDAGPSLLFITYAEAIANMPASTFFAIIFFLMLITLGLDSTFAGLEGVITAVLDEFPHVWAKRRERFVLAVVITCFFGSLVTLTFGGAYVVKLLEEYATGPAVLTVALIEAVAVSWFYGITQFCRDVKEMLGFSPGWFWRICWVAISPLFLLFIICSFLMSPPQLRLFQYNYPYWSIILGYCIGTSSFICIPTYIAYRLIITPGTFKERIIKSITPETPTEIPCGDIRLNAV
T1 sequence (G1TDF9 1-617): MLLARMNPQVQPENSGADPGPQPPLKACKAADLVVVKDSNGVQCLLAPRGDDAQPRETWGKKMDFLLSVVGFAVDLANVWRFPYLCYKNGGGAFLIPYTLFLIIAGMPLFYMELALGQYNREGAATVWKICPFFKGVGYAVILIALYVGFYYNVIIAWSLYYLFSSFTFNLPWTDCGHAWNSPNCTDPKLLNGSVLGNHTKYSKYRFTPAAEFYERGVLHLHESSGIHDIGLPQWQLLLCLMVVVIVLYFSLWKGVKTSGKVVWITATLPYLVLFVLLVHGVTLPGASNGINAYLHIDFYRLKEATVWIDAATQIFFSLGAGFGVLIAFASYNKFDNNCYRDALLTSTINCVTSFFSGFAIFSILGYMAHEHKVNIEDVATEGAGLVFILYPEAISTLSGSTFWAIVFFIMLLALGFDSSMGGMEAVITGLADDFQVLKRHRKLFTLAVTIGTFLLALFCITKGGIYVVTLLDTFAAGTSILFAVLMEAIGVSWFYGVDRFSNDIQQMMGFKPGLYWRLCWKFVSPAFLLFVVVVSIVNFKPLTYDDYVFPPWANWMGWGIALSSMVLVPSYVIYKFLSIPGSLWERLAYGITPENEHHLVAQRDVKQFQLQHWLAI

Cl.Fc1ccc(COC2(c3ccc(F)cc3)CCNCC2)cc1 [20a, 4-((4-Fluorobenzyl)oxy)-4-(4-fluorophenyl)piperidine Hydrochloride]
melting point: 158 to 159 °C
Ki (NET [1]; [14]): 520 nM
Ki (DAT [2]): > 100000 nM

Cl.Fc1ccc(C2(OCc3ccccc3F)CCNCC2)cc1 [20c, 4-((2-Fluorobenzyl)oxy)-4-(4-fluorophenyl)piperidine Hydrochloride]
melting point: 202 °C
Ki (NET [1]; [14]): 400 nM
Ki (DAT [2]): > 100000 nM

Cl.Fc1ccc(C2(OCc3ccc4c(c3)OCO4)CCNCC2)cc1 [20d, 4-(Benzo[D][1,3]dioxol-5-ylmethoxy)-4-(4-fluorophenyl)piperidine Hydrochloride]
IC50 (SERT [3]): 2.64 ± 0.3 nM
Ki (SERT [3]): 1.75 nM
Ki (SERT [4]): 1.71 ± 0.15 nM
Ki (DAT [5]): > 100000 nM
Ki (NET [1]; [14]): 1740 nM
potency as inhibitor of [3H]paroxetine binding relative to unlabeled paroxetine (SERT [6]): ~10 fold
[3H]paroxetine, Ki (SERT [7]): picomolar range

Cl.Fc1ccc(COC2(c3ccc(C(F)(F)F)cc3)CCNCC2)cc1 [21a, 4-((4-Fluorobenzyl)oxy)-4-(4-(trifluoromethyl)phenyl)piperidine Hydrochloride]
melting point: 261 °C (dec.)
Ki (NET [1]): > 10000 nM
Ki (DAT [2]): > 100000 nM

Cl.FC(F)(F)c1ccc(COC2(c3ccc(C(F)(F)F)cc3)CCNCC2)cc1 [21b, 4-((4-(Trifluoromethyl)benzyl)oxy)-4-(4-(trifluoromethyl)phenyl)piperidine Hydrochloride]
IC50 (SERT [3]): 4.2 ± 0.4 nM
Ki (SERT [3]): 2.77 nM
melting point: 189 to 190 °C
Ki (SERT [4]): 5.6 ± 0.52 nM
Ki (DAT [5]): > 100000 nM
Ki (NET [1]; [14]): > 10000 nM
[3H]paroxetine, Ki (SERT [7]): picomolar range

Cl.Fc1ccccc1COC1(c2ccc(C(F)(F)F)cc2)CCNCC1 [21c, 4-((2-Fluorobenzyl)oxy)-4-(4-(trifluoromethyl)phenyl)piperidine Hydrochloride]
melting point: 210 °C (dec.)
Ki (NET [1]; [14]): 2070 nM
Ki (DAT [2]): 11100 nM

Cl.FC(F)(F)c1ccc(C2(OCc3ccc4c(c3)OCO4)CCNCC2)cc1 [21d, 4-(Benzo[d][1,3]dioxol-5-ylmethoxy)-4-(4-(trifluoromethyl)phenyl)piperidine Hydrochloride]
IC50 (SERT [3]): 4.9 ± 0.5 nM
Ki (SERT [3]): 3.26 nM
Ki (SERT [4]): 8.72 ± 0.93 nM
Ki (DAT [5]): 11200 nM
Ki (NET [1]; [14]): 2450 nM
[3H]paroxetine, Ki (SERT [7]): picomolar range

Fc1ccc([C@@H]2CCNC[C@H]2COc2ccc3c(c2)OCO3)cc1 [compound 1, paroxetine]
Ki (NET [8]): 80 ± 1 nM

COc1ccc(OC[C@H]2CN(C)CC[C@@H]2c2ccccc2)cc1 [compound 4, femoxetine]
DAT pKi exp (DAT [9]): 5.7
NET pKi exp (NET [10]; [15]): 6.12

CNCC[C@@H](Oc1ccccc1C)c1ccccc1 [compound 6, atomoxetine]
DAT pKi exp (DAT [9]): 5.8

CNCCC(Oc1ccccc1OC)c1ccccc1 (stereo not drawn) [compound 8, nisoxetine]
NET pKi exp (NET [11]): 9.34

COC(=O)[C@H]1[C@@H](c2ccc(Cl)cc2)C[C@@H]2CC[C@H]1N2C [compound 9, RTI-31]
DAT pKi exp (DAT [9]): 8.57
NET pKi exp (NET [10]): 7.4

COC(=O)[C@H]1[C@@H](c2ccc(I)cc2)C[C@@H]2CC[C@H]1N2C [compound 10, RTI-55]
SERT pKi exp (SERT [12]): 8.4
DAT pKi exp (DAT [9]): 8.41
NET pKi exp (NET [10]): 7.7

COCCCC/C(=N\OCCN)c1ccc(C(F)(F)F)cc1 [compound 11, fluvoxamine]
DAT pKi exp (DAT [9]): 5.03

c1ccc(CCCN2CCN(CCOC(c3ccccc3)c3ccccc3)CC2)cc1 [compound 13, GBR-12935]
NET pKi exp (NET [10]; [15]): 6.2

c1ccc2c(CCC3CCNCC3)c[nH]c2c1 [compound 14, indalpine]
SERT pKi exp (SERT [12]; [15]): 8.76
DAT pKi exp (DAT [9]): 6
NET pKi exp (NET [10]; [15]): 6.29

CCOc1ccccc1OCC1CNCCO1 (stereo not drawn) [compound 16, viloxazine]
DAT pKi exp (DAT [9]): 5
NET pKi exp (NET [10]): 6.81

CN1[C@H]2CC[C@@H]1[C@@H](C(=O)N1CCCC1)[C@@H](c1ccc(I)cc1)C2 [compound 17, RTI-229]
SERT pKi exp (SERT [12]): 6.8
NET pKi exp (NET [10]; [15]): 6.22

CN(C)C/C=C(/c1ccc(Br)cc1)c1cccnc1 [compound 18, zimelidine]
DAT pKi exp (DAT [9]): 4.93

CN1C2CCC1C(C(=O)Oc1ccccc1)C(c1ccc(Cl)cc1)C2 (stereo not drawn) [compound 19, RTI-113]
SERT pKi exp (SERT [13]): 6.67
NET pKi exp (NET [11]): 5.75

Cl.Fc1ccc(C2(OCc3ccc(C(F)(F)F)cc3)CCNCC2)cc1 [compound 20b, 4-(4-Fluorophenyl)-4-((4-(trifluoromethyl)benzyl)oxy)piperidine Hydrochloride]
IC50 (SERT [3]): 0.13 ± 0.01 nM
Ki (SERT [3]): 0.08 nM
type of inhibition of [3H]5-HT uptake (SERT [3]; human platelets, Lineweaver-Burk plot, Vmax unchanged, Km changed): competitive
melting point: 184 to 185 °C
Ki (SERT [4]): 0.17 ± 0.02 nM
Ki (DAT [5]): > 100000 nM
Ki (NET [1]; [14]): 10000 nM
potency as inhibitor of [3H]paroxetine binding relative to unlabeled paroxetine (SERT [6]): ~10 fold
[3H]paroxetine, Ki (SERT [7]): picomolar range
